In PubChem BioAssay (NCI) one finds GI50 and TGI data, which are given here for 1 compound.

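Protocol summary: plate cells (96-well), add compound at 5 concentrations, incubate 48 h, interpolate endpoints linearly. The concentration for 50% growth inhibition is given as GI50. TGI: concentration producing complete growth inhibition.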

Some test systems named below: CAKI-1 renal; DU-145 prostate; HOP-92 NSCLC; HS 578T breast; OVCAR-4 ovarian; SK-MEL-5 melanoma; UACC-257 melanoma.
Test in all cases: NCI tumour cell line growth inhibition, 48 h

`CC(C)(C)c1cc(C(=O)Nc2cc3ccccc3cc2C(=O)NCCN)cc(C(C)(C)C)c1`: the GI50 was 1130 nM with CAKI-1 renal; 374 nM with DU-145 prostate; 146 nM in the assay with HOP-92 NSCLC; 1650 nM in the assay with HS 578T breast; 1240 nM in the assay with OVCAR-4 ovarian; 1650 nM with SK-MEL-5 melanoma. In the assay on UACC-257 melanoma, the GI50 was 2350 nM. The TGI in the assay on CAKI-1 renal was 2440 nM; with DU-145 prostate it was 1290 nM; in the assay on HOP-92 NSCLC it was 396 nM; in the assay with HS 578T breast, 4570 nM; in the assay with OVCAR-4 ovarian, 2700 nM; in the assay with SK-MEL-5 melanoma it was 3170 nM. In the assay on UACC-257 melanoma, this compound came in with a TGI of 4980 nM.
